In patent US10421761B2, “Compounds for kinase modulation, and indications therefor” (Plexxikon Inc., priority 2013, dated 2019):

Assays:
BRAF V600E = target: T1, BRAF V600E (Homo sapiens, UniProt P15056, V600E); test: BRAF V600E biochemical kinase activity assay (AlphaScreen, biotin-MEK1 substrate); conditions: BRAF V600E biochemical inhibitory activity
T1 construct: purchased Upstate Biotechnology

[1] = test system: IPC-298 (NRAS Q61L) cell line; test: IPC-298 P-ERK cell activation assay (AlphaScreen); assay type: cell-based, human; conditions: Homo sapiens; P-ERK cell activation, IPC-298; numeric bounds; read-out: Cell activity (EC50 μM) IPC-298_P-ERK
In short: (§1)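 Phospho-ERK1/2 (Thr202/Tyr204) in lysates quantified via AlphaScreen bead proximity, after one-hour, 37° C. exposure of cells to eight compound concentrations. Lines: IPC-298 human melanoma with activated NRAS; B9 mouse squamous carcinoma with activated HRAS.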

[2] = test system: A375 (BRAF V600E) cell line; test: A375 P-ERK inhibition assay (AlphaScreen); assay type: cell-based, human; conditions: Homo sapiens, A-375; A375_P-ERK
In short: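 Phospho-ERK1/2 (Thr202/Tyr204) detected in lysates by AlphaScreen proximity signal, pairing a total-ERK antibody with a phospho-specific antibody. Before lysis, A375 cells received compound as an 8-point titration for one hour at 37° C.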

B9 (HRAS Q61L) cell line = test: B9 P-ERK cell activation assay (AlphaScreen); assay type: cell-based, mouse; conditions: Mus musculus; P-ERK cell activation, B9; numeric bounds; read-out: Cell activity (EC50 μM) B9_pERK
In short: as §1

T1 sequence (P15056 whole entry V600E): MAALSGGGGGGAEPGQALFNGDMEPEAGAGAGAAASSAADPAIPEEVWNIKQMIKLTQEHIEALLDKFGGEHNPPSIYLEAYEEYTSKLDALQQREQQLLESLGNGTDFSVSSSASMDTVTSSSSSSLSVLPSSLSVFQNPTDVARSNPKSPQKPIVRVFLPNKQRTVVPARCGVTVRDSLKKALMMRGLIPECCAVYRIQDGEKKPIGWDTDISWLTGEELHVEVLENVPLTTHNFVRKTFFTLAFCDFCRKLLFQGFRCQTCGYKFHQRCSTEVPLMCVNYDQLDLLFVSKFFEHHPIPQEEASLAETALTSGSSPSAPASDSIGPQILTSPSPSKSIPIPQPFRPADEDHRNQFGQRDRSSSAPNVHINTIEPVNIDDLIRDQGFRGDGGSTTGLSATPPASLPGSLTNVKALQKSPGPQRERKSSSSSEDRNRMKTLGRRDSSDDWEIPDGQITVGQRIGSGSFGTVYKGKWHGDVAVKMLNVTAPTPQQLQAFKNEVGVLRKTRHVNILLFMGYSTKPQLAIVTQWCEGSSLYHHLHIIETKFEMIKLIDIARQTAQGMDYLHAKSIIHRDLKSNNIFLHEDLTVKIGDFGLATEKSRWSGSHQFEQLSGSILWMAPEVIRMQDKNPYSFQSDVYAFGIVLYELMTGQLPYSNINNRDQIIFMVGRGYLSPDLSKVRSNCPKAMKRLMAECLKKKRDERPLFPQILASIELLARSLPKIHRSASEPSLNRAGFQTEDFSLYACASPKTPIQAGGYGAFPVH

Row | Structure (SMILES) | IC50 (BRAF V600E) [µM] | EC50 [1] [µM] | IC50 [2] [µM] | EC50 (B9 (HRAS Q61L) cell line) [µM]
1 | CCN(CC)S(=O)(=O)Nc1ccc(F)c(C(=O)c2c[nH]c3ncnc(NC(C)C)c23)c1F [P-2042, 5-[3-(diethylsulfamoylamino)-2,6-difluoro-benzoyl]-4-(isopropylamino)-7H-pyrrolo[2,3-d]pyrimidine] | 0.0001 to 1 | > 10 | 0.0001 to 1 | > 10
2 | CC(C)Nc1ncnc2[nH]cc(C(=O)c3c(F)ccc(NS(=O)(=O)C4CCC4)c3F)c12 [P-2043, N-[2,4-difluoro-3-[4-(isopropylamino)-7H-pyrrolo[2,3-d]pyrimidine-5-carbonyl]phenyl]cyclobutanesulfonamide] | 1 to 10 | > 10 | 1 to 10 | > 10
3 | CC(C)Nc1ncnc2[nH]cc(C(=O)c3c(F)ccc(NS(=O)(=O)N4CCOCC4)c3F)c12 [P-2044, N-[2,4-difluoro-3-[4-(isopropylamino)-7H-pyrrolo[2,3-d]pyrimidine-5-carbonyl]phenyl]morpholine-4-sulfonamide] | 0.0001 to 1 | > 10 | 0.0001 to 1 | > 10
4 | CC(C)Nc1ncnc2[nH]cc(C(=O)c3c(F)ccc(NS(=O)(=O)N(C)C)c3F)c12 [P-2045, 5-[3-(dimethylsulfamoylamino)-2,6-difluoro-benzoyl]-4-(isopropylamino)-7H-pyrrolo[2,3-d]pyrimidine] | 0.0001 to 1 | > 10 | 0.0001 to 1 | > 10
5 | O=C(c1c(F)ccc(NS(=O)(=O)C2CCCCC2)c1F)c1c[nH]c2ncnc(NCC3CC3)c12 [P-2049, N-[3-[4-(cyclopropylmethylamino)-7H-pyrrolo[2,3-d]pyrimidine-5-carbonyl]-2,4-difluoro-phenyl]cyclohexanesulfonamide] | 0.0001 to 1 | > 10 | 0.0001 to 1 | > 10
6 | CCN(CC)S(=O)(=O)Nc1ccc(F)c(C(=O)c2c[nH]c3ncnc(NCC4CC4)c23)c1F [P-2052, 4-(cyclopropylmethylamino)-5-[3-(diethylsulfamoylamino)-2,6-difluoro-benzoyl]-7H-pyrrolo[2,3-d]pyrimidine] | 0.0001 to 1 | > 10 | 0.0001 to 1 | > 10
7 | O=C(c1c(F)ccc(NS(=O)(=O)N2CCOCC2)c1F)c1c[nH]c2ncnc(NCC3CC3)c12 [P-2054, N-[3-[4-(cyclopropylmethylamino)-7H-pyrrolo[2,3-d]pyrimidine-5-carbonyl]-2,4-difluoro-phenyl]morpholine-4-sulfonamide] | 0.0001 to 1 | > 10 | 0.0001 to 1 | > 10
8 | CCC(C)S(=O)(=O)Nc1ccc(F)c(C(=O)c2c[nH]c3ncnc(NCC4CC4)c23)c1F (stereo not shown) [P-2056, N-[3-[4-(cyclopropylmethylamino)-7H-pyrrolo[2,3-d]pyrimidine-5-carbonyl]-2,4-difluoro-phenyl]butane-2-sulfonamide] | 0.0001 to 1 | > 10 | 0.0001 to 1 | > 10
9 | O=C(c1cccc(NS(=O)(=O)N2CCCC2)c1F)c1c[nH]c2ncnc(NCC3CC3)c12 [P-2057, N-[3-[4-(cyclopropylmethylamino)-7H-pyrrolo[2,3-d]pyrimidine-5-carbonyl]-2-fluoro-phenyl]pyrrolidine-1-sulfonamide] | 0.0001 to 1 | > 10 | 0.0001 to 1 | > 10
10 | O=C(c1c(F)ccc(NS(=O)(=O)C2CCOCC2)c1F)c1c[nH]c2ncnc(NCC3CC3)c12 [P-2058, N-[3-[4-(cyclopropylmethylamino)-7H-pyrrolo[2,3-d]pyrimidine-5-carbonyl]-2,4-difluoro-phenyl]tetrahydropyran-4-sulfonamide] | 0.0001 to 1 | > 10 | 0.0001 to 1 | > 10
11 | CCN(C)S(=O)(=O)Nc1ccc(F)c(C(=O)c2c[nH]c3ncnc(NCC4CC4)c23)c1F [P-2061, 4-(cyclopropylmethylamino)-5-[3-[[ethyl(methyl)sulfamoyl]amino]-2,6-difluoro-benzoyl]-7H-pyrrolo[2,3-d]pyrimidine] | 0.0001 to 1 | > 10 | 0.0001 to 1 | > 10
12 | CCN(C)S(=O)(=O)Nc1cccc(C(=O)c2c[nH]c3ncnc(NC)c23)c1F [P-2062, 5-[3-[[ethyl(methyl)sulfamoyl]amino]-2-fluoro-benzoyl]-4-(methylamino)-7H-pyrrolo[2,3-d]pyrimidine] | 0.0001 to 1 | > 10 | 0.0001 to 1 | > 10
13 | CCN(C)S(=O)(=O)Nc1cccc(C(=O)c2c[nH]c3ncnc(NC4CC4)c23)c1F [P-2063, 4-(cyclopropylamino)-5-[3-[[ethyl(methyl)sulfamoyl]amino]-2-fluoro-benzoyl]-7H-pyrrolo[2,3-d]pyrimidine] | 0.0001 to 1 | > 10 | 0.0001 to 1 | > 10
14 | CCN(C)S(=O)(=O)Nc1cccc(C(=O)c2c[nH]c3ncnc(NCC4CC4)c23)c1F [P-2064, 4-(cyclopropylmethylamino)-5-[3-[[ethyl(methyl)sulfamoyl]amino]-2-fluoro-benzoyl]-7H-pyrrolo[2,3-d]pyrimidine] | 0.0001 to 1 | > 10 | 0.0001 to 1 | > 10
15 | CCN(C)S(=O)(=O)Nc1cccc(C(=O)c2c[nH]c3ncnc(NCC(F)(F)F)c23)c1F [P-2065, 5-[3-[[ethyl(methyl)sulfamoyl]amino]-2-fluoro-benzoyl]-4-(2,2,2-trifluoroethylamino)-7H-pyrrolo[2,3-d]pyrimidine] | 0.0001 to 1 | > 10 | 0.0001 to 1 | > 10
16 | CCCNc1ncnc2[nH]cc(C(=O)c3cccc(NS(=O)(=O)N(C)CC)c3F)c12 [P-2066, 5-[3-[[ethyl(methyl)sulfamoyl]amino]-2-fluoro-benzoyl]-4-(propylamino)-7H-pyrrolo[2,3-d]pyrimidine] | 0.0001 to 1 | > 10 | 0.0001 to 1 | > 10
17 | CCN(C)S(=O)(=O)Nc1cccc(C(=O)c2c[nH]c3ncnc(NC(C)C)c23)c1F [P-2067, 5-[3-[[ethyl(methyl)sulfamoyl]amino]-2-fluoro-benzoyl]-4-(isopropylamino)-7H-pyrrolo[2,3-d]pyrimidine] | 0.0001 to 1 | > 10 | 0.0001 to 1 | > 10
18 | CCN(C)S(=O)(=O)Nc1cccc(C(=O)c2c[nH]c3ncnc(NC4CCC(F)(F)CC4)c23)c1F [P-2068, 4-[(4,4-difluorocyclohexyl)amino]-5-[3-[[ethyl(methyl)sulfamoyl]amino]-2-fluoro-benzoyl]-7H-pyrrolo[2,3-d]pyrimidine] | 0.0001 to 1 | > 10 | 0.0001 to 1 | > 10
19 | CCN(C)S(=O)(=O)Nc1cccc(C(=O)c2c[nH]c3ncnc(NCC(C)(C)O)c23)c1F [P-2069, 5-[3-[[ethyl(methyl)sulfamoyl]amino]-2-fluoro-benzoyl]-4-[(2-hydroxy-2-methyl-propyl)amino]-7H-pyrrolo[2,3-d]pyrimidine] | 0.0001 to 1 | > 10 | 0.0001 to 1 | > 10
20 | O=C(c1cccc(NS(=O)(=O)N2CCCC2)c1F)c1c[nH]c2ncnc(NC3CC3)c12 [P-2070, N-[3-[4-(cyclopropylamino)-7H-pyrrolo[2,3-d]pyrimidine-5-carbonyl]-2-fluoro-phenyl]pyrrolidine-1-sulfonamide] | 0.0001 to 1 | > 10 | 0.0001 to 1 | > 10
21 | CNc1ncnc2[nH]cc(C(=O)c3cccc(NS(=O)(=O)N4CCCC4)c3F)c12 [P-2071, N-[2-fluoro-3-[4-(methylamino)-7H-pyrrolo[2,3-d]pyrimidine-5-carbonyl]phenyl]pyrrolidine-1-sulfonamide] | 0.0001 to 1 | > 10 | 0.0001 to 1 | > 10
22 | CCN(C)S(=O)(=O)Nc1cccc(C(=O)c2c[nH]c3ncnc(NC4CCC4)c23)c1F [P-2072, 4-(cyclobutylamino)-5-[3-[[ethyl(methyl)sulfamoyl]amino]-2-fluoro-benzoyl]-7H-pyrrolo[2,3-d]pyrimidine] | 0.0001 to 1 | > 10 | 0.0001 to 1 | > 10
23 | CCN(C)S(=O)(=O)Nc1cccc(C(=O)c2c[nH]c3ncnc(NCCOC)c23)c1F [P-2073, 5-[3-[[ethyl(methyl)sulfamoyl]amino]-2-fluoro-benzoyl]-4-(2-methoxyethylamino)-7H-pyrrolo[2,3-d]pyrimidine] | 0.0001 to 1 | > 10 | 0.0001 to 1 | > 10
24 | CCN(C)S(=O)(=O)Nc1cccc(C(=O)c2c[nH]c3ncnc(NC[C@@H]4CCCO4)c23)c1F [P-2074, 5-[3-[[ethyl(methyl)sulfamoyl]amino]-2-fluoro-benzoyl]-4-[[(2S)-tetrahydrofuran-2-yl]methylamino]-7H-pyrrolo[2,3-d]pyrimidine] | 0.0001 to 1 | > 10 | 0.0001 to 1 | > 10
25 | CCN(C)S(=O)(=O)Nc1cccc(C(=O)c2c[nH]c3ncnc(NC4CCOCC4)c23)c1F [P-2075, 5-[3-[[ethyl(methyl)sulfamoyl]amino]-2-fluoro-benzoyl]-4-(tetrahydropyran-4-ylamino)-7H-pyrrolo[2,3-d]pyrimidine] | 0.0001 to 1 | > 10 | 0.0001 to 1 | > 10
